Results reported in ChEMBL document CHEMBL1154068, “Synthesis and evaluation of A-seco type triterpenoids for anti-HIV-1protease activity” (Eur J Med Chem, 2009).

Target: Protease (Human immunodeficiency virus 1, UniProt Q9YQ12)
Assay: Inhibition of HIV1 protease

Sequence of Protease (Q9YQ12 whole entry): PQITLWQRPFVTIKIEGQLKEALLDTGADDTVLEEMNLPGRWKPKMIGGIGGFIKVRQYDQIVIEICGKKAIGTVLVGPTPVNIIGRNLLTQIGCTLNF

Row | Compound | IC50 [µM]
1 | C[C@@H]1[C@H]2[C@H]3CC[C@@H]4[C@@]5(C)C=C(O)C(=O)C(C)(C)[C@@H]5CC[C@@]4(C)[C@]3(C)CC[C@@]2(C(=O)O)CC[C@H]1C | 25.4
2 | C=C(C)[C@@H]1CC[C@@]2(C)[C@@H]1[C@@H]1CC[C@@H]3[C@@](C)(CC(=O)O)[C@H](C(C)(C)C(=O)O)CC[C@@]3(C)[C@]1(C)C[C@@H]2O | 10.9
3 | C=C(C)[C@@H]1CC[C@]2(C(=O)O)CC[C@]3(C)[C@@H](CC[C@@H]4[C@@](C)(CC(=O)O)[C@H](C(C)(C)C(=O)O)CC[C@]43C)[C@H]12 | 15.7
4 | CC1(C)C(=O)CC[C@]2(C)[C@H]3C(=O)C=C4[C@H]5C[C@@](C)(C(=O)O)CC[C@]5(C)CC[C@@]4(C)[C@]3(C)CC[C@@H]12 | 23.6
5 | CC1(C)CC[C@]2(C(=O)O)CC[C@]3(C)[C@H](CC[C@@H]4[C@@]5(C)C=C(O)C(=O)C(C)(C)[C@@H]5CC[C@]43C)[C@H]2C1 | 19.2
6 | CC1(C)CC[C@]2(C(=O)O)CC[C@]3(C)C(=CC[C@@H]4[C@@](C)(CC(=O)O)[C@H](C(C)(C)C(=O)O)CC[C@]43C)[C@H]2C1 | 3.9
7 | CC1(C)C(=O)C(O)=C[C@]2(C)[C@H]3C(=O)C[C@@H]4[C@H]5C[C@@](C)(C(=O)O)CC[C@]5(C)CC[C@@]4(C)[C@]3(C)CC[C@@H]12 | 15.8
8 | C=C(C)[C@@H]1CC[C@]2(C(=O)O)CC[C@]3(C)[C@@H](CC[C@@H]4[C@@]5(C)C=C(O)C(=O)C(C)(C)[C@@H]5CC[C@]43C)[C@H]12 | 18.8
9 | CC(C)(C(=O)O)[C@@H]1CC[C@]2(C)[C@H](C(=O)C=C3[C@H]4C[C@@](C)(C(=O)O)CC[C@]4(C)CC[C@]32C)[C@@]1(C)CC(=O)O | 5.7
10 | CC1(C)CC[C@]2(C(=O)O)CC[C@]3(C)C(=CC[C@@H]4[C@@]5(C)CCC(=O)C(C)(C)[C@@H]5CC[C@]43C)[C@H]2C1 | 27.4
11 | CC1(C)CC[C@]2(CO)CC[C@]3(C)C(=CC[C@@H]4[C@@](C)(CC(=O)O)[C@H](C(C)(C)C(=O)O)CC[C@]43C)[C@H]2C1 | 30.4
12 | CC(C)[C@@H](NC(=O)[C@]12CCC(C)(C)C[C@@H]1C1=CC[C@@H]3[C@@]4(C)CC[C@H](O)C(C)(C)[C@@H]4CC[C@@]3(C)[C@]1(C)CC2)C(=O)O | 47.3
13 | C[C@H]1[C@H](C)CC[C@]2(C(=O)O)CC[C@]3(C)C(=CC[C@@H]4[C@@](C)(CC(=O)O)[C@H](C(C)(C)C(=O)O)CC[C@]43C)[C@H]12 | 17.6
14 | C=C(C)[C@@H]1CC[C@]2(C)CC[C@]3(C)[C@@H](CC[C@@H]4[C@@]5(C)CCC(=O)C(C)(C)[C@@H]5CC[C@]43C)[C@H]12 | > 236
15 | CC(C)[C@H](NC(=O)[C@]12CCC(C)(C)C[C@@H]1C1=CC[C@@H]3[C@@]4(C)CCC(=O)C(C)(C)[C@@H]4CC[C@@]3(C)[C@]1(C)CC2)C(=O)O | 14.6
16 | CC(C)[C@@H](NC(=O)[C@]12CCC(C)(C)C[C@@H]1C1=CC[C@@H]3[C@@](C)(CC(=O)O)[C@H](C(C)(C)C(=O)O)CC[C@@]3(C)[C@]1(C)CC2)C(=O)O | 88.1

Row | Compound | IC50 [µM]
17 | COC(=O)[C@@H](NC(=O)[C@]12CCC(C)(C)C[C@@H]1C1=CC[C@@H]3[C@@]4(C)CC[C@H](O)C(C)(C)[C@@H]4CC[C@@]3(C)[C@]1(C)CC2)C(C)C | 24.6
18 | COC(=O)[C@@H](NC(=O)[C@]12CCC(C)(C)C[C@@H]1C1=CC[C@@H]3[C@@]4(C)CC[C@H](OC(C)=O)C(C)(C)[C@@H]4CC[C@@]3(C)[C@]1(C)CC2)C(C)C | 21.3
19 | COC(=O)[C@H](NC(=O)[C@]12CCC(C)(C)C[C@@H]1C1=CC[C@@H]3[C@@]4(C)CCC(=O)C(C)(C)[C@@H]4CC[C@@]3(C)[C@]1(C)CC2)C(C)C | 41.4
20 | COC(=O)[C@@H](NC(=O)[C@]12CCC(C)(C)C[C@@H]1C1=CC[C@@H]3[C@@]4(C)CCC(=O)C(C)(C)[C@@H]4CC[C@@]3(C)[C@]1(C)CC2)C(C)C | 37
21 | CC(C)[C@@H](NC(=O)[C@]12CCC(C)(C)C[C@@H]1C1=CC[C@@H]3[C@@]4(C)CCC(=O)C(C)(C)[C@@H]4CC[C@@]3(C)[C@]1(C)CC2)C(=O)O | 45.2
22 | CC(C)[C@H](NC(=O)[C@]12CCC(C)(C)C[C@@H]1C1=CC[C@@H]3[C@@]4(C)CC[C@H](O)C(C)(C)[C@@H]4CC[C@@]3(C)[C@]1(C)CC2)C(=O)O | 10.6
23 | COC(=O)[C@H](NC(=O)[C@]12CCC(C)(C)C[C@@H]1C1=CC[C@@H]3[C@@]4(C)CC[C@H](O)C(C)(C)[C@@H]4CC[C@@]3(C)[C@]1(C)CC2)C(C)C | 32.3
24 | CC(C)[C@@H](NC(=O)[C@]12CCC(C)(C)C[C@@H]1[C@H]1CC[C@@H]3[C@@]4(C)C=C(O)C(=O)C(C)(C)[C@@H]4CC[C@@]3(C)[C@]1(C)CC2)C(=O)O | 49.7
25 | CC(C)[C@H](NC(=O)[C@]12CCC(C)(C)C[C@@H]1[C@H]1CC[C@@H]3[C@@]4(C)C=C(O)C(=O)C(C)(C)[C@@H]4CC[C@@]3(C)[C@]1(C)CC2)C(=O)O | 40.5
26 | C=C(C)[C@@H]1CC[C@]2(C)CC[C@]3(C)[C@@H](CC[C@@H]4[C@@]5(C)C=C(O)C(=O)C(C)(C)[C@@H]5CC[C@]43C)[C@H]12 | 24.6
27 | CC1(C)CC[C@]2(C(=O)O)CC[C@]3(C)C(=CC[C@@H]4[C@@]5(C)CC(=O)C(C)(C)[C@@H]5CC[C@]43C)[C@H]2C1 | 28.6
28 | C=C(C)[C@@H]1CC[C@]2(C=O)CC[C@]3(C)[C@@H](CC[C@@H]4[C@@]5(C)CCC(=O)C(C)(C)[C@@H]5CC[C@]43C)[C@H]12 | 31.9
29 | C=C(C)[C@@H]1CC[C@]2(C)CC[C@]3(C)[C@@H](CC[C@@H]4[C@@](C)(CC(=O)O)[C@H](C(C)(C)C(=O)O)CC[C@]43C)[C@H]12 | 25.4
30 | CC(=O)O[C@H]1CC[C@]2(C)[C@H]3CC=C4[C@@H]5CC(C)(C)CC[C@]5(C(=O)O)CC[C@@]4(C)[C@]3(C)CC[C@H]2C1(C)C [ACETYL OLEANOLIC ACID] | > 201
31 | C[C@H]1[C@H](C)CC[C@]2(C(=O)O)CC[C@]3(C)C(=CC[C@@H]4[C@@]5(C)CCC(=O)C(C)(C)[C@@H]5CC[C@]43C)[C@H]12 [URSONIC ACID] | 37.5

Target: T1, Renin (Homo sapiens, UniProt P00797)
T1 sequence (P00797 whole entry): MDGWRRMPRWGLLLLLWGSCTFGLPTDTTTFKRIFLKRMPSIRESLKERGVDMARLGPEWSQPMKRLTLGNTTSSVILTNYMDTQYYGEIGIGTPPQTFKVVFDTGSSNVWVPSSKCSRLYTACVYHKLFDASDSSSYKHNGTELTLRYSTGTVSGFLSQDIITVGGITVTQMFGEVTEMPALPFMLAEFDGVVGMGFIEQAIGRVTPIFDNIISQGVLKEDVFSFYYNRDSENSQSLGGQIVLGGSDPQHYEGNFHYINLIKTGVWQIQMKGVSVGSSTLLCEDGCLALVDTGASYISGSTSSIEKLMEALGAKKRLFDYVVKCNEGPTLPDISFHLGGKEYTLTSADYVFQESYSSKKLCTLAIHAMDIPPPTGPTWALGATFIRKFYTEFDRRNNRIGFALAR
Assay: Inhibition of renin by fluorimetric assay

Row | Compound | IC50 [µM]
32 | C=C(C)[C@@H]1CC[C@@]2(C)[C@@H]1[C@@H]1CC[C@@H]3[C@@](C)(CC(=O)O)[C@H](C(C)(C)C(=O)O)CC[C@@]3(C)[C@]1(C)C[C@@H]2O | > 2050
33 | C=C(C)[C@@H]1CC[C@]2(C(=O)O)CC[C@]3(C)[C@@H](CC[C@@H]4[C@@](C)(CC(=O)O)[C@H](C(C)(C)C(=O)O)CC[C@]43C)[C@H]12 | > 1990
34 | CC1(C)CC[C@]2(C(=O)O)CC[C@]3(C)C(=CC[C@@H]4[C@@](C)(CC(=O)O)[C@H](C(C)(C)C(=O)O)CC[C@]43C)[C@H]2C1 | > 1990
35 | CC(C)(C(=O)O)[C@@H]1CC[C@]2(C)[C@H](C(=O)C=C3[C@H]4C[C@@](C)(C(=O)O)CC[C@]4(C)CC[C@]32C)[C@@]1(C)CC(=O)O | > 1930
36 | C[C@H]1[C@H](C)CC[C@]2(C(=O)O)CC[C@]3(C)C(=CC[C@@H]4[C@@](C)(CC(=O)O)[C@H](C(C)(C)C(=O)O)CC[C@]43C)[C@H]12 | > 1990
37 | CC(C)[C@@H](NC(=O)[C@]12CCC(C)(C)C[C@@H]1C1=CC[C@@H]3[C@@](C)(CC(=O)O)[C@H](C(C)(C)C(=O)O)CC[C@@]3(C)[C@]1(C)CC2)C(=O)O | > 1660
38 | C=C(C)[C@@H]1CC[C@]2(C)CC[C@]3(C)[C@@H](CC[C@@H]4[C@@](C)(CC(=O)O)[C@H](C(C)(C)C(=O)O)CC[C@]43C)[C@H]12 | > 2120

Tested on: not listed separately
Assay: Inhibition of HCV NS3/4A protease by fluorimetric assay
Set-up: species or system Hepacivirus hominis

Row | Compound | IC50 [µM]
39 | C=C(C)[C@@H]1CC[C@@]2(C)[C@@H]1[C@@H]1CC[C@@H]3[C@@](C)(CC(=O)O)[C@H](C(C)(C)C(=O)O)CC[C@@]3(C)[C@]1(C)C[C@@H]2O | > 205
40 | C=C(C)[C@@H]1CC[C@]2(C(=O)O)CC[C@]3(C)[C@@H](CC[C@@H]4[C@@](C)(CC(=O)O)[C@H](C(C)(C)C(=O)O)CC[C@]43C)[C@H]12 | > 199
41 | CC1(C)CC[C@]2(C(=O)O)CC[C@]3(C)C(=CC[C@@H]4[C@@](C)(CC(=O)O)[C@H](C(C)(C)C(=O)O)CC[C@]43C)[C@H]2C1 | > 199
42 | CC(C)(C(=O)O)[C@@H]1CC[C@]2(C)[C@H](C(=O)C=C3[C@H]4C[C@@](C)(C(=O)O)CC[C@]4(C)CC[C@]32C)[C@@]1(C)CC(=O)O | > 194
43 | C[C@H]1[C@H](C)CC[C@]2(C(=O)O)CC[C@]3(C)C(=CC[C@@H]4[C@@](C)(CC(=O)O)[C@H](C(C)(C)C(=O)O)CC[C@]43C)[C@H]12 | > 199
44 | CC(C)[C@@H](NC(=O)[C@]12CCC(C)(C)C[C@@H]1C1=CC[C@@H]3[C@@](C)(CC(=O)O)[C@H](C(C)(C)C(=O)O)CC[C@@]3(C)[C@]1(C)CC2)C(=O)O | > 166
45 | C=C(C)[C@@H]1CC[C@]2(C)CC[C@]3(C)[C@@H](CC[C@@H]4[C@@](C)(CC(=O)O)[C@H](C(C)(C)C(=O)O)CC[C@]43C)[C@H]12 | 80.3

Tested on: not listed separately
Assay: Inhibition of trypsin by fluorimetric assay

Row | Compound | IC50 [µM]
46 | C=C(C)[C@@H]1CC[C@@]2(C)[C@@H]1[C@@H]1CC[C@@H]3[C@@](C)(CC(=O)O)[C@H](C(C)(C)C(=O)O)CC[C@@]3(C)[C@]1(C)C[C@@H]2O | > 2050
47 | C=C(C)[C@@H]1CC[C@]2(C(=O)O)CC[C@]3(C)[C@@H](CC[C@@H]4[C@@](C)(CC(=O)O)[C@H](C(C)(C)C(=O)O)CC[C@]43C)[C@H]12 | 856
48 | CC1(C)CC[C@]2(C(=O)O)CC[C@]3(C)C(=CC[C@@H]4[C@@](C)(CC(=O)O)[C@H](C(C)(C)C(=O)O)CC[C@]43C)[C@H]2C1 | > 1990
49 | CC(C)(C(=O)O)[C@@H]1CC[C@]2(C)[C@H](C(=O)C=C3[C@H]4C[C@@](C)(C(=O)O)CC[C@]4(C)CC[C@]32C)[C@@]1(C)CC(=O)O | > 1940
50 | C[C@H]1[C@H](C)CC[C@]2(C(=O)O)CC[C@]3(C)C(=CC[C@@H]4[C@@](C)(CC(=O)O)[C@H](C(C)(C)C(=O)O)CC[C@]43C)[C@H]12 | > 1990
51 | CC(C)[C@@H](NC(=O)[C@]12CCC(C)(C)C[C@@H]1C1=CC[C@@H]3[C@@](C)(CC(=O)O)[C@H](C(C)(C)C(=O)O)CC[C@@]3(C)[C@]1(C)CC2)C(=O)O | > 1660
52 | C=C(C)[C@@H]1CC[C@]2(C)CC[C@]3(C)[C@@H](CC[C@@H]4[C@@](C)(CC(=O)O)[C@H](C(C)(C)C(=O)O)CC[C@]43C)[C@H]12 | > 2120
